Among the data in patent publication US9062071B2, “Substituted piperidines as HDM2 inhibitors” (Merck Sharp & Dohme Corp, priority 2011, dated 2015) are IC50 values, retold here.

This assay has as its target HDM2 protein (Homo sapiens, UniProt Q00987). As to the kind of experiment: fluorescence polarization screening assay (FP IC50). The conditions noted are these: class symbols. It counts as binding. The method, then:
The compounds were evaluated to determine activity at the HDM2 protein by known methods such as the fluorescence polarization screening assay that measures the inhibitory concentration that achieves 50% of maximal activity (FP IC50) and the dissociation constant for inhibitor binding (FP Ki). [Zhang et al., J. Analytical Biochemistry 331: 138-146 (2004)].
(In fluorescence polarisation assays a small probe gives low polarisation when free and higher when bound to something large.)

Chain of HDM2 protein (Q00987 whole entry): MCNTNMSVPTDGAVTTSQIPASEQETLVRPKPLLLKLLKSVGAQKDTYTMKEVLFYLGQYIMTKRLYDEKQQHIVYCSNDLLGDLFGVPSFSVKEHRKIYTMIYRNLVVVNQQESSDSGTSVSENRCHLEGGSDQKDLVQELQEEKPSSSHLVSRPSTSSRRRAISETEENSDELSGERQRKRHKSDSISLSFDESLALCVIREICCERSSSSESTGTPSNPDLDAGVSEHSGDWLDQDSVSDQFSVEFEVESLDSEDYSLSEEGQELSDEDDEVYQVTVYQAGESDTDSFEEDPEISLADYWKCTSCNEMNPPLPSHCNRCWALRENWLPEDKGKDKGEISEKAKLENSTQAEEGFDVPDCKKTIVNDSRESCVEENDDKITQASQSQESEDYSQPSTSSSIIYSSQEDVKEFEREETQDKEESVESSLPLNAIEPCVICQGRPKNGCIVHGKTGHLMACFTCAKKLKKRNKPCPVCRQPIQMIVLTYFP

The IC50 is the point on the concentration scale where inhibition reaches its midpoint. A high value points to weaker potency. `CCC[C@H]1N(C(=O)c2ncccc2C(F)(F)F)CCC[C@@]1(Oc1csc(C(F)(F)F)c1)C(=O)N1CCc2cc(Cl)ccc2[C@H]1CCC(=O)N1CCN(CCO)CC1` [Compound A91, 2-(4-{3-[(1R)-6-chloro-2-{[(2R,3S)-2-propyl-1-{[3-(trifluoromethyl)pyridin-2-yl]carbonyl}-3-{[5-(trifluoromethyl)thiophen-3-yl]oxy}piperidin-3-yl]carbonyl}-1,2,3,4-tetrahydroisoquinolin-1 - yl]propanoyl}piperazin-1-yl)ethanol]: the IC50 fell in the range of 1 to 100 nM.
For `CCC[C@H]1N(C(=O)c2ncccc2C(F)(F)F)CCC[C@@]1(Oc1csc(C(F)(F)F)c1)C(=O)N1CCc2cc(Cl)ccc2[C@H]1CCC(=O)O` [Compound A45, 3-[(1R)-6-chloro-2-{[(2R,3S)-2-propyl-1-{[3-(trifluoromethyl)pyridin-2-yl]carbonyl}-3-{[5-(trifluoromethyl)thiophen-3-yl]oxy}piperidin-3-yl]carbonyl}-1,2,3,4-tetrahydroisoquinolin-1-yl]propanoic acid], the IC50 was in the range of 1 to 100 nM.
In the case of `NC(=O)C1c2ccc(Cl)cc2CCN1C(=O)[C@]1(Oc2csc(C(F)(F)F)c2)CCCN(C(=O)c2ncccc2C(F)(F)F)[C@@H]1CC(=O)O` (stereo partly drawn) [Compound A97, [(2R,3S)-3-[(1-carbamoyl-6-chloro-3,4-dihydroisoquinolin-2(1H)-yl)carbonyl]-1-{[3-(trifluoromethyl)pyridin-2-yl]carbonyl}-3-{[5-(trifluoromethyl)thiophen-3-yl]oxy}piperidin-2-yl]acetic acid], the IC50 was in the range of 1 to 100 nM.
The same measure for `CCC[C@H]1N(C(=O)c2ncccc2C(F)(F)F)CCC[C@@]1(Oc1csc(C(F)(F)F)c1)C(=O)N1CCc2ccc(F)cc2C1` [Compound A138, 7-fluoro-2-{[(2R,3S)-2-propyl-1-{[3-(trifluoromethyl)pyridin-2-yl]carbonyl}-3-{[5-(trifluoromethyl)thiophen-3-yl]oxy}piperidin-3-yl]carbonyl}-1,2,3,4-tetrahydroisoquinoline]: 101 to 20000 nM; for `CCC[C@H]1N(C(=O)c2ncccc2C(F)(F)F)CCC[C@@]1(Oc1csc(C(F)(F)F)c1)C(=O)N1CCc2cc(F)ccc2C1CCC(=O)NCc1nn[nH]n1` (stereo partly drawn) [Compound A59, 3-(6-fluoro-2-{[(2R,3S)-2-propyl-1-{[3-(trifluoromethyl)pyridin-2-yl]carbonyl}-3-{[5-(trifluoromethyl)thiophen-3-yl]oxy}piperidin-3-yl]carbonyl}-1,2,3,4-tetrahydroisoquinolin-1-yl)-N-(2H-tetrazol-5-ylmethyl)propanamide]: 1 to 100 nM.
For the molecule `CCC[C@H]1N(C(=O)c2ncccc2C(F)(F)F)CCC[C@@]1(Oc1csc(C(F)(F)F)c1)C(=O)N1CCc2ccsc2C1CC(C)(C)C(=O)O` (stereo partly drawn) [Compound A29, 2,2-dimethyl-3-(6-{[(2R,3S)-2-propyl-1-{[3-(trifluoromethyl)pyridin-2-yl]carbonyl}-3-{[5-(trifluoromethyl)thiophen-3-yl]oxy}piperidin-3-yl]carbonyl}-4,5,6,7-tetrahydrothieno[2,3-c]pyridin-7-yl)propanoic acid], the IC50 was in the range of 1 to 100 nM.
For the molecule `CCC[C@H]1N(C(=O)c2ncccc2C(F)(F)F)CCC[C@@]1(Oc1csc(C(F)(F)F)c1)C(=O)N1CCc2cc(Cl)ccc2C1CC(C)(C)C(=O)NS(C)(=O)=O` (single isomer, unassigned) [Compound A69], the IC50 lay within 1 to 100 nM.
The result for `CCC[C@H]1N(C(=O)c2ncccc2C(F)(F)F)CCC[C@@]1(Oc1csc(C(F)(F)F)c1)C(=O)N1CCc2cc(Cl)ccc2C1C(N)=O` (stereo partly drawn) [Compound A77, 6-chloro-2-{[(2R,3S)-2-propyl-1-{[3-(trifluoromethyl)pyridin-2-yl]carbonyl}-3-{[5-(trifluoromethyl)thiophen-3-yl]oxy}piperidin-3-yl]carbonyl}-1,2,3,4-tetrahydroisoquinoline-1-carboxamide] reads 1 to 100 nM; that for `CCC[C@H]1N(C(=O)c2ncccc2C(F)(F)F)CCC[C@@]1(Oc1csc(C(F)(F)F)c1)C(=O)N1CCc2sc(Cl)cc2C1CCC(=O)O` (stereo partly drawn) [Compound A23, 3-(2-chloro-5-{[(2R,3S)-2-propyl-1-{[3-(trifluoromethyl)pyridin-2-yl]carbonyl}-3-{[5-(trifluoromethyl)thiophen-3-yl]oxy}piperidin-3-yl]carbonyl}-4,5,6,7-tetrahydrothieno[3,2-c]pyridin-4-yl)propanoic acid], 1 to 100 nM; that for `CCC[C@H]1N(C(=O)c2ncccc2C(F)(F)F)CCC[C@@]1(Oc1csc(C(F)(F)F)c1)C(=O)N1Cc2ccc(F)cc2C[C@@H]1CCC(=O)O` [Compound A124, 3-[(3S)-6-fluoro-2-{[(2R,3S)-2-propyl-1-{[3-(trifluoromethyl)pyridin-2-yl]carbonyl}-3-{[5-(trifluoromethyl)thiophen-3-yl]oxy}piperidin-3-yl]carbonyl}-1,2,3,4-tetrahydroisoquinolin-3-yl]propanoic acid], 1 to 100 nM.
The same measure for `CCC[C@H]1N(C(=O)c2ncccc2C(F)(F)F)CCC[C@@]1(Oc1csc(C(F)(F)F)c1)C(=O)N1CCc2cc(Cl)ccc2C1COC` (stereo partly drawn) [Compound A107, 6-chloro-1-(methoxymethyl)-2-{[(2R,3S)-2-propyl-1-{[3-(trifluoromethyl)pyridin-2-yl]carbonyl}-3-{[5-(trifluoromethyl)thiophen-3-yl]oxy}piperidin-3-yl]carbonyl}-1,2,3,4-tetrahydroisoquinoline]: 101 to 20000 nM.
In turn, `CCC[C@H]1N(C(=O)c2ncccc2C(F)(F)F)CCC[C@@]1(Oc1csc(C(F)(F)F)c1)C(=O)N1CCc2cc(F)ccc2C1C(=O)O` (stereo partly drawn) [Compound A101, 6-fluoro-2-{[(2R,3S)-2-propyl-1-{[3-(trifluoromethyl)pyridin-2-yl]carbonyl}-3-{[5-(trifluoromethyl)thiophen-3-yl]oxy}piperidin-3-yl]carbonyl}-1,2,3,4-tetrahydroisoquinoline-1-carboxylic acid] gave an IC50 of 1 to 100 nM.
With `CCC[C@H]1N(C(=O)c2ncccc2C(F)(F)F)CCC[C@@]1(Oc1csc(C(F)(F)F)c1)C(=O)N1CCc2cc(Br)ccc2C1` [Compound A50, 6-bromo-2-{[(2R,3S)-2-propyl-1-{[3-(trifluoromethyl)pyridin-2-yl]carbonyl}-3-{[5-(trifluoromethyl)thiophen-3-yl]oxy}piperidin-3-yl]carbonyl}-1,2,3,4-tetrahydroisoquinoline], the IC50 was 1 to 100 nM.
In the case of `CCC[C@H]1N(C(=O)c2ncccc2C(F)(F)F)CCC[C@@]1(Oc1csc(C(F)(F)F)c1)C(=O)N1CCc2cc(Br)ccc2C1CCC(=O)O` (stereo partly drawn) [Compound A58, 3-(6-bromo-2-{[(2R,3S)-2-propyl-1-{[3-(trifluoromethyl)pyridin-2-yl]carbonyl}-3-{[5-(trifluoromethyl)thiophen-3-yl]oxy}piperidin-3-yl]carbonyl}-1,2,3,4-tetrahydroisoquinolin-1-yl)propanoic acid], the half-maximal inhibitory concentration (IC50) fell in the range of 1 to 100 nM.
In turn, `CCC[C@H]1N(C(=O)c2ncccc2C(F)(F)F)CCC[C@@]1(Oc1csc(C(F)(F)F)c1)C(=O)N1CCc2sc(Cl)cc2C1CCCN1CCCC1` (stereo partly drawn) [Compound A33, 2-chloro-5-{[(2R,3S)-2-propyl-1-{[3-(trifluoromethyl)pyridin-2-yl]carbonyl}-3-{[5-(trifluoromethyl)thiophen-3-yl]oxy}piperidin-3-yl]carbonyl}-4-(3-pyrrolidin-1-ylpropyl)-4,5,6,7-tetrahydrothieno[3,2-c]pyridine] yielded an IC50 of 101 to 20000 nM.
